Square brackets hold non-standard residues; d marks the D form. Peptide text beside a SMILES is read from it. hArg = N=C(N)NCCCC[C@H](N)C(=O)O; Aib = CC(C)(N)C(=O)O
Target: T1, PTH-1 receptor endogenously expressed in SaOS-2 cells (Homo sapiens, UniProt Q03431)
T1 construct: endogenously expressed relatively low levels of the PTH-1 receptor; endogenous in cells; host or cells: SaOS-2 (SaOS-2-B10) human osteosarcoma cells
T1 sequence (Q03431 27-593): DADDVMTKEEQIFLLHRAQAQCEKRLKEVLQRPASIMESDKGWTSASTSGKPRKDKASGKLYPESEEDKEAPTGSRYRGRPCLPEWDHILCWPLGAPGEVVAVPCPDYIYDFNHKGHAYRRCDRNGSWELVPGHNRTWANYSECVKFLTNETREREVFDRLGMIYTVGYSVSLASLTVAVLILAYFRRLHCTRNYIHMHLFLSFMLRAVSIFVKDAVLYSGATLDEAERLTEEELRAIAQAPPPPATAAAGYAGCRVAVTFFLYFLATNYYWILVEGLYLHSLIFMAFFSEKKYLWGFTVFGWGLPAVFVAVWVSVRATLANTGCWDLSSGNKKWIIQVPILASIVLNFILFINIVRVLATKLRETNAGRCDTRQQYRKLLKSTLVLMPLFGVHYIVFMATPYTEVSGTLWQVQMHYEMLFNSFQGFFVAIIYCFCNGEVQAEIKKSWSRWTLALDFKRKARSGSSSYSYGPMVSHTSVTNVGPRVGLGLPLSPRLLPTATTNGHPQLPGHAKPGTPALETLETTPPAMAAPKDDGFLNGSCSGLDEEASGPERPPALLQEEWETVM
Test: cAMP stimulation in SaOS-2 cells
Format: cell-based
Conditions: for EMAX(obs.): basal 6.4 ± 0.8; for EC50: N.R. = no cAMP response detected
Procedure: Cell Culture. The cell line HKRK-B28 (Takasu, H., et al., J. Bone Miner. Res. 14:11-20 (1999)) was derived from the porcine kidney cell line, LLC-PK1 by stable transfection with plasmid DNA encoding the human P1R and expresses ˜280,000 receptors per cell. These cells, as well as COS-7 cells and SaOS-2-B10 cells, were cultured at […] in T-75 flasks ([…]) in Dulbecco's modified Eagle's medium (DMEM) supplemented with fetal bovine serum (10%), penicillin G (20 units/ml), streptomycin sulfate (20 μg/ml) and amphotericin B (0.05 μg/ml) in a humidified atmosphere containing 5% CO2. Stock solutions of EGTA/trypsin and antibiotics were from GIBCO; fetal bovine serum was from Hyclone Laboratories (Logan, Utah). COS-7 cells sub-cultured in 24-well plates were transfected with plasmid DNA (200 ng per well) encoding the wild-type human P1R or truncated human P1R deleted for residues (24-181) (Shimizu, M., et al., J. Biol. Chem. 275:21836-21843 (2000)) that was purified by cesium chloride/ethidium bromide density gradient centrifugation, and FuGENE 6 transfection reagent (Roche Indianapolis Ind.) according to the manufacturer's recommended procedure. All cells, in 24-well plates, were treated with fresh media and shifted to 33° C. for 12 to 24 h prior to assay.
cAMP Stimulation. Stimulation of cells with peptide analogs was performed in 24-well plates. Cells were rinsed with 0.5 mL of binding buffer (50 mM Tris-HCI, […], 5 mM KCl, 2 mM CaCl2, 5% heat-inactivated horse serum, 0.5% fetal bovine serum, adjusted to pH 7.5 with HCl) and treated with 200 μL of cAMP assay buffer (Delbecco's modified Eagle's medium containing 2 mM 3-isobutyl-1-methylxanthine, 1 mg/mL bovine serum albumin, 35 mM Hepes-NaOH, pH 7.4) and 100 μL of binding buffer containing varying amounts of peptide analog (final volume=300 μL). The medium was removed after incubation for 30 to 60 minutes at room temperature, and the cells were frozen on dry ice, lysed with 0.5 mL 50 mM HCl, and refrozen ([…]). The cAMP content of the diluted lysate was determined by radioimmunoassay. The EC50 response values were calculated using nonlinear regression (see below).
Data Calculation. Calculations were performed using Microsoft® Excel. Nonlinear regression analyses of binding and cAMP dose-response data were performed using the four-parameter equation: yp=Min+[(Max−Min)/(1+(IC50/x)^slope)]. The Excel Solver function was utilized for parameter optimization, as described previously (Carter, P. H., et al., Endocrinology 140: 4972-4981 (1999); Bowen, W. P., and Jerman, J. C., Trends in Pharmacol. Sci. 16: 413-417 (1995)). Differences between paired data sets were statistically evaluated using a one-tailed Student's t-test, assuming unequal variances for the two sets.
The number of PTH-1 receptors expressed on the surface of the PTH target cells in bone or kidney is uncertain, but it is likely to be considerably lower than that found in HKRK-B28 cells. Therefore, several of the Aib-mounted PTH analogs were evaluated using SaOS-2 cells.

| Compound | EMAX(obs.) (cAMP) | fold more potent in stimulating cAMP formation than [M]PTH(1-14) | fold less potent than PTH(1-34) (cAMP) | EC50 (cAMP) | EC50 (cAMP, listed as native PTH(1-14)) |
| --- | --- | --- | --- | --- | --- |
| CCCC[C@H](NC(=O)[C@H](CCCNC(=N)N)NC(=O)[C@H](CCC(=O)O)NC(=O)[C@@H](NC(=O)[C@H](CO)NC(=O)[C@H](C)NC(=O)[C@H](CC(C)C)NC(=O)[C@H](Cc1c[nH]cn1)NC(=O)[C@H](CCCCN)NC(=O)CNC(=O)[C@H](CC(C)C)NC(=O)[C@H](CC(N)=O)NC(=O)[C@H](Cc1c[nH]cn1)NC(=O)[C@H](CCCC)NC(=O)[C@H](CC(C)C)NC(=O)[C@H](CCC(N)=O)NC(=O)[C@@H](NC(=O)[C@H](CCC(=O)O)NC(=O)[C@H](CO)NC(=O)[C@@H](NC(=O)[C@H](C)N)C(C)C)[C@@H](C)CC)C(C)C)C(=O)N[C@@H](CCC(N)=O)C(=O)N[C@@H](Cc1c[nH]c2ccccc12)C(=O)N[C@@H](CC(C)C)C(=O)N[C@@H](CCCNC(=N)N)C(=O)N[C@@H](CCCCN)C(=O)N[C@@H](CCCCN)C(=O)N[C@@H](CC(C)C)C(=O)N[C@@H](CCC(N)=O)C(=O)N[C@@H](CC(=O)O)C(=O)N[C@H](C(=O)N[C@@H](Cc1c[nH]cn1)C(=O)N[C@@H](CC(N)=O)C(=O)N[C@@H](Cc1ccc(O)cc1)C(N)=O)C(C)C [PTH(1-34), [Nle^8,21, Tyr^34]PTH(1-34)amide, reference compound] | 350 ± 30 pmole/well | – | – | – | – |
| CC[C@H](C)[C@H](NC(=O)[C@H](CCC(=O)O)NC(=O)C(C)(C)NC(=O)[C@@H](NC(=O)C(C)(C)N)C(C)C)C(=O)N[C@@H](CCC(N)=O)C(=O)N[C@@H](CC(C)C)C(=O)N[C@@H](CCSC)C(=O)N[C@@H](Cc1c[nH]cn1)C(=O)N[C@@H](CCC(N)=O)C(=O)N[C@@H](CCCCNC(=N)N)C(=O)N[C@@H](C)C(=O)N[C@@H](CCCCN)C(=O)N[C@@H](Cc1c[nH]c2ccccc12)C(N)=O [[Aib^1,3,M]PTH(1-14), AibValAibGluIleGlnLeuMetHisGlnHarAlaLysTrp] (H-[Aib]V[Aib]EIQLMHQ[hArg]AKW-NH2) | 320 ± 30 pmole/well | 130 fold | 13 fold | – | – |
| CC[C@H](C)[C@H](NC(=O)[C@H](CCC(=O)O)NC(=O)[C@H](C)NC(=O)[C@@H](NC(=O)[C@H](C)N)C(C)C)C(=O)N[C@@H](CCC(N)=O)C(=O)N[C@@H](CC(C)C)C(=O)N[C@@H](CCSC)C(=O)N[C@@H](Cc1c[nH]cn1)C(=O)N[C@@H](CCC(N)=O)C(=O)N[C@@H](CCCCNC(=N)N)C(=O)N[C@@H](C)C(=O)N[C@@H](CCCCN)C(=O)N[C@@H](Cc1c[nH]c2ccccc12)C(N)=O [[M]PTH(1-14), [Ala^3,12,Gln^10,Har^11,Trp^14]PTH(1-14)amide, reference compound] (H-AVAEIQLMHQ[hArg]AKW-NH2) | 340 ± 30 pmole/well | – | – | – | – |
| H-AVSEIQLMHNLGKH-NH2 [PTH(1-14), reference compound] | – | – | – | N.R. | no activity could be detected |

Reference: patent publication US7572765B2, “Conformationally constrained parathyroid hormone (PTH) analogs” (The General Hospital Corporation, priority 2001, dated 2009)
